Reference: patent US5622933A, “Multiple branch peptide constructions for use against HIV” (priority 1993, dated 1997)
Values joined by “and” are separate entries in the source; they are usually repeats but may differ in a detail not shown here. Equal entries are not always repeated. Where two headings read alike, the source gives them in different places. Ends that are not written are not given here.

Experiments:
HIV-1MN = test: Syncytia formation blockage (chronically infected cells + uninfected Molt-4 cells); assay type: cell-based; set-up: key: -: The presence of syncytia is indicated by + signs, allocated in approximate proportion to the quantities counted; The presence of syncytia is indicated by + signs, allocated in approximate proportion to the quantities counted; ++: The presence of syncytia is indicated by + signs, allocated in approximate proportion to the quantities counted; +++: The presence of syncytia is indicated by + signs, allocated in approximate proportion to the quantities counted; ++++: The presence of syncytia is indicated by + signs, allocated in approximate proportion to the quantities counted
Procedure: (§1) CEM or C8166 cells were chronically infected with HIV-1 Lai or HIV-2 Rod, or HIV-1MN, respectively. Infected cells (1×10^4) were incubated for 2 hours with various concentrations of MBPCs in 96-well plates. Uninfected Molt-4 cells (4×10^4) were then added in […]. Syncytia were counted after 18 hours at 37° C.

HIV-1Lai = test: as above; assay type: cell-based; set-up: key: -: The presence of syncytia is indicated by + signs, allocated in approximate proportion to the quantities counted; The presence of syncytia is indicated by + signs, allocated in approximate proportion to the quantities counted; ++: The presence of syncytia is indicated by + signs, allocated in approximate proportion to the quantities counted; +++: The presence of syncytia is indicated by + signs, allocated in approximate proportion to the quantities counted; ++++: The presence of syncytia is indicated by + signs, allocated in approximate proportion to the quantities counted
Procedure: as §1

HIV-2Rod = test: as above; assay type: cell-based; set-up: key: -: The presence of syncytia is indicated by + signs, allocated in approximate proportion to the quantities counted; The presence of syncytia is indicated by + signs, allocated in approximate proportion to the quantities counted; ++: The presence of syncytia is indicated by + signs, allocated in approximate proportion to the quantities counted; +++: The presence of syncytia is indicated by + signs, allocated in approximate proportion to the quantities counted; ++++: The presence of syncytia is indicated by + signs, allocated in approximate proportion to the quantities counted
Procedure: as §1

New Zealand rabbits = test: Immunogenicity in rabbits (serum ELISA for anti MBPC.3 antibodies); assay type: in vivo, rabbit; conditions: coat GPGRAF monomer 10 μg/ml
Procedure: […] This procedure was repeated subcutaneously with incomplete Freud's adjuvant on days 30, 60, 90 and 120. Sera were tested by ELISA, looking for specific anti MBPC.3 antibodies. Data presented here is from the last serum samples (120+7 days).
(§2) […] After saturation with 400 μL of casein (5 g/100 ml), different serum dilutions were added for 2 hours at 37° C. The controls were sera from non-immunized rabbits and mice. After rinsing (5×), 50 μl of 1:5000 of peroxidase-labeled swine anti-rabbit IgG or anti-mouse IgG (Dakopatts, Copenhagen, Denmark) were added for 1 hour at 37° C. After further rinsing (5×), 100 μl of ortho-phenylenediamine were added for 30 min in the dark at room temperature. The reaction was stopped by adding 50 μl of 4N sulfuric acid, and optical density (OD) ratios were determined at 492/620 nm.

C57/BL6 black mice = test: Immunogenicity in mice (serum ELISA for anti-MBPC3 antibody); assay type: in vivo, mouse; conditions: coat GPGRAF monomer 10 μg/ml, listed as Mo
Procedure: The injection route was intraperitoneal. The blood samples were collected by sub-orbital eye punction. The blood samples were left for 1 hour at 37° C., then overnight at 4° C., and the supernatants (serum samples) thus obtained were separated from the pellets. Sera were tested by ELISA, looking for specific anti-MBPC3 antibody.
as §2

HIV-1 (IIIB) = assay type: cell-based; conditions: for number of syncytia (HIV-1 induced cell fusion): 24 hours
Description: 50×10^3 8E5 cells chronically infected with a RT-deficient HIV-I (IIIB) isolate, were co-cultivated with 150×10^3 phytohemagglutinin (PHA) stimulated human peripheral blood lymphocytes (PBLs) in the presence of the indicated peptide in 96-well plates. The MBPCs used are described by the peptides attached, and the number thereof, to a core lysine matrix, which is designated HLC. All amino acids used for this experiment were in dextro form.

HIV-1 (89.6) = test: Infection of and syncytia formation in human primary macrophages; assay type: cell-based; conditions: 5×10^-5 M; 10,000 TCID50
Procedure: MBPCs were also evaluated for their ability to block the infection of human primary macrophages by a highly cytopathic macrophage-tropic isolate, HIV-1 (89.6). Mononuclear cells were isolated from leukophoresis units enriched for monocytes by Ficoll-Hypaque density separation. Macrophages were purified by adherence to plastic in RPMI 1640 supplemented with 10% fetal calf serum and 5% human AB serum. […] 5×10^5 cells were treated for 45 minutes with the indicated MBPC at concentrations of 5×10^-5 M and subsequently exposed to 10,000 TCID50 of the macrophage-tropic isolate HIV (89.6). […] After thorough washing, the cells were fed again with medium and analyzed for HIV-1 p24^gag production and syncytia formation 4 days post-infection.

8E5 cells = test: Toxicity in the cell fusion test (MTT assay or trypan blue exclusion); assay type: cell-based; conditions: 5 × 10^-5 M

(IGPGRAF)4 -(K)2 -K-βA-OH (also: four copies on lysine core (K)2-K-βA-OH) [MBPC.4]
Syncytia formation (HIV-1MN; MBPC Conc. 5 × 10^-6 M): ++++ | Syncytia formation (HIV-1MN; MBPC Conc. 10^-6 M): ++++ | Syncytia formation (HIV-1MN; MBPC Conc. 10^-7 M): +++ | Syncytia formation (HIV-1Lai; MBPC Conc. 5 × 10^-6 M): +++ | Syncytia formation (HIV-1Lai; MBPC Conc. 10^-6 M): ++++ | Syncytia formation (HIV-1Lai; MBPC Conc. 10^-7 M): ++++ | Syncytia formation (HIV-2Rod; MBPC Conc. 5 × 10^-6 M): ++++ | Syncytia formation (HIV-2Rod; MBPC Conc. 10^-6 M): ++++ | Syncytia formation (HIV-2Rod; MBPC Conc. 10^-7 M): ++++

GPGRAF [Mono.3, GPGRAF, reference compound]
optical density (OD) ratio 492/620 nm (×10^3) (New Zealand rabbits; plate 1, rabbit serum 10^-2): 2000 | optical density (OD) ratio 492/620 nm (×10^3) (New Zealand rabbits; plate 1, rabbit serum 10^-3): 2000 | optical density (OD) ratio 492/620 nm (×10^3) (New Zealand rabbits; plate 1, rabbit serum 10^-4, listed as Mo): 677 and 725 | optical density (OD) ratio 492/620 nm (×10^3) (New Zealand rabbits; plate 2, rabbit serum 10^-2): 2000 | optical density (OD) ratio 492/620 nm (×10^3) (New Zealand rabbits; plate 2, rabbit serum 10^-3, listed as Mo): 2000 and 1909 | optical density (OD) ratio 492/620 nm (×10^3) (New Zealand rabbits; plate 2, rabbit serum 10^-4, listed as Mo): 588 and 625 | optical density (OD) ratio 492/620 nm (×10^3) (New Zealand rabbits; plate 4, rabbit serum 10^-2): 811 | optical density (OD) ratio 492/620 nm (×10^3) (New Zealand rabbits; plate 4, rabbit serum 10^-3, listed as Mo): 245 and 194 | optical density (OD) ratio 492/620 nm (×10^3) (C57/BL6 black mice; plate 1, mouse serum 10^-2): 1224 and 1135 | optical density (OD) ratio 492/620 nm (×10^3) (C57/BL6 black mice; plate 1, mouse serum 10^-3): 310 and 287 | optical density (OD) ratio 492/620 nm (×10^3) (C57/BL6 black mice; plate 1, mouse serum 10^-4): 104 and 185 | optical density (OD) ratio 492/620 nm (×10^3) (C57/BL6 black mice; plate 2, mouse serum 10^-2): 1539 and 1575 | optical density (OD) ratio 492/620 nm (×10^3) (C57/BL6 black mice; plate 2, mouse serum 10^-3): 342 and 335 | optical density (OD) ratio 492/620 nm (×10^3) (C57/BL6 black mice; plate 2, mouse serum 10^-4): 95 and 126 | optical density (OD) ratio 492/620 nm (×10^3) (C57/BL6 black mice; plate 4, mouse serum 10^-2): 1231 and 1317 | optical density (OD) ratio 492/620 nm (×10^3) (C57/BL6 black mice; plate 4, mouse serum 10^-3): 380 and 386 | optical density (OD) ratio 492/620 nm (×10^3) (C57/BL6 black mice; plate 4, mouse serum 10^-4): 123 and 122

RAFVTIGK [RAFVTIGK (SEQ ID NO:6), reference compound]
number of syncytia (HIV-1 induced cell fusion) (HIV-1 (IIIB); 5 × 10^-5 M): - (- indicates the total absence of syncytia in the well) | number of syncytia (HIV-1 induced cell fusion) (HIV-1 (IIIB); 5 × 10^-6 M): +++ | number of syncytia (HIV-1 induced cell fusion) (HIV-1 (IIIB); 5 × 10^-7 M): +++

[Ac-GPGRAF]8 -MLC (also: eight copies on MLC (multibranched lysine core)) [N-terminal acetylation]
inhibition of syncytia formation / cell fusion, in words (HIV-1 (IIIB)): significant loss of activity | number of syncytia (HIV-1 induced cell fusion) (HIV-1 (IIIB); 5 × 10^-5 M): - (- indicates the total absence of syncytia in the well) | number of syncytia (HIV-1 induced cell fusion) (HIV-1 (IIIB); 5 × 10^-6 M): +++ | number of syncytia (HIV-1 induced cell fusion) (HIV-1 (IIIB); 5 × 10^-7 M): +++

[GPG(R)D AF]8 -MLC
number of syncytia (HIV-1 induced cell fusion) (HIV-1 (IIIB); 5 × 10^-6 M): - (- indicates the total absence of syncytia in the well) | number of syncytia (HIV-1 induced cell fusion) (HIV-1 (IIIB); 5 × 10^-7 M): +++ | inhibition of macrophage infection, in words (HIV-1 (89.6)): significantly less active than [GPGRAF]8 -MLC

[GPGRAF]8 -MLCD
number of syncytia (HIV-1 induced cell fusion) (HIV-1 (IIIB); 5 × 10^-5 M): +++ | number of syncytia (HIV-1 induced cell fusion) (HIV-1 (IIIB); 5 × 10^-6 M): +++ | number of syncytia (HIV-1 induced cell fusion) (HIV-1 (IIIB); 5 × 10^-7 M): +++ | inhibition of macrophage infection, in words (HIV-1 (89.6)): significantly less active than [GPGRAF]8 -MLC

[GPGRA]8 -MLC
inhibition of syncytia formation / cell fusion, in words (HIV-1 (IIIB)): did not inhibit cell fusion | number of syncytia (HIV-1 induced cell fusion) (HIV-1 (IIIB); 5 × 10^-5 M): +++ | number of syncytia (HIV-1 induced cell fusion) (HIV-1 (IIIB); 5 × 10^-6 M): +++ | number of syncytia (HIV-1 induced cell fusion) (HIV-1 (IIIB); 5 × 10^-7 M): +++

[GPGR]8 -MLC
inhibition of syncytia formation / cell fusion, in words (HIV-1 (IIIB)): did not inhibit cell fusion | number of syncytia (HIV-1 induced cell fusion) (HIV-1 (IIIB); 5 × 10^-5 M): +++ | number of syncytia (HIV-1 induced cell fusion) (HIV-1 (IIIB); 5 × 10^-6 M): +++ | number of syncytia (HIV-1 induced cell fusion) (HIV-1 (IIIB); 5 × 10^-7 M): +++

[IGPGRAF]8 -MLC (also: octameric multibranched MLC construct)
inhibition of syncytia formation / cell fusion, in words (HIV-1 (IIIB)): significant loss of activity | number of syncytia (HIV-1 induced cell fusion) (HIV-1 (IIIB); 5 × 10^-5 M): - (- indicates the total absence of syncytia in the well) | number of syncytia (HIV-1 induced cell fusion) (HIV-1 (IIIB); 5 × 10^-6 M): ± | number of syncytia (HIV-1 induced cell fusion) (HIV-1 (IIIB); 5 × 10^-7 M): +++

[RKSIHKGPGRAFYT]4 -MLC (also: tetrameric multibranched MLC construct)
number of syncytia (HIV-1 induced cell fusion) (HIV-1 (IIIB); 5 × 10^-6 M): - (- indicates the total absence of syncytia in the well) | number of syncytia (HIV-1 induced cell fusion) (HIV-1 (IIIB); 5 × 10^-7 M): +++ | Toxicity (8E5 cells): Toxic

[RKSIHTGPGRAFYT]4 -MLC (also: tetrameric multibranched MLC construct)
number of syncytia (HIV-1 induced cell fusion) (HIV-1 (IIIB); 5 × 10^-6 M): - (- indicates the total absence of syncytia in the well) | number of syncytia (HIV-1 induced cell fusion) (HIV-1 (IIIB); 5 × 10^-7 M): +++ | Toxicity (8E5 cells): Toxic
